# From patent publication US7479561B2, “4-(2,4-dichloro-5-methoxyphenyl)amino-6-methoxy-7-{[5-substituted-amino)methyl]-3-furyl}-3-quinolinecarbonitriles as kinase inhibitors” (Wyeth, priority 2004, dated 2009)
# pIC50: −log10 of the molar value. Values joined by “and” are separate entries in the source; they are usually repeats but may differ in a detail not shown here. Identical values can stand only once.
# Target: T1, Recombinant human Src enzyme (Homo sapiens, UniProt P12931)
# T1 construct: purchased PanVera P3044
# Test: Src Kinase Assay (LANCE FRET)
# Format: biochemical
# Details: 100 μM ATP; multiple entries = tested multiple times; read-out: Src enzyme IC50
# Description: Recombinant human Src enzyme was obtained from PanVera (P3044). […] Homogeneous fluorescence resonance energy transfer kinase assays were performed using the europium/APC detection format (LANCE, Perkin Elmer). Src enzyme (10 ng) was mixed with biotinylated peptide (final concentration 2 μM), 50 mM Hepes (pH 7.5), 10 mM MgCl2, 20 ug/ml BSA, 0.001% Brij-35 (Sigma), 100 μM ATP, 1% DMSO. The kinase reaction was incubated for 70 min at 37° C. The reaction was stopped with EDTA at a final concentration of 30 mM EDTA/25 mM Hepes (pH 7.5)/10 μg/ml BSA. The mixture was combined with Eu-labeled anti-phosphotyrosine antibody PT66 (Perkin Elmer, AD0068) and Streptavidin Surelight-APC (Perkin Elmer, CR130-100) in 50 mM Hepes (pH 7.5)/20 μg/ml BSA, and incubated for 30 min according to manufacturer's specifications. […] Multiple entries for a given compound indicate that it was tested multiple times.
# T1 sequence (P12931 whole entry): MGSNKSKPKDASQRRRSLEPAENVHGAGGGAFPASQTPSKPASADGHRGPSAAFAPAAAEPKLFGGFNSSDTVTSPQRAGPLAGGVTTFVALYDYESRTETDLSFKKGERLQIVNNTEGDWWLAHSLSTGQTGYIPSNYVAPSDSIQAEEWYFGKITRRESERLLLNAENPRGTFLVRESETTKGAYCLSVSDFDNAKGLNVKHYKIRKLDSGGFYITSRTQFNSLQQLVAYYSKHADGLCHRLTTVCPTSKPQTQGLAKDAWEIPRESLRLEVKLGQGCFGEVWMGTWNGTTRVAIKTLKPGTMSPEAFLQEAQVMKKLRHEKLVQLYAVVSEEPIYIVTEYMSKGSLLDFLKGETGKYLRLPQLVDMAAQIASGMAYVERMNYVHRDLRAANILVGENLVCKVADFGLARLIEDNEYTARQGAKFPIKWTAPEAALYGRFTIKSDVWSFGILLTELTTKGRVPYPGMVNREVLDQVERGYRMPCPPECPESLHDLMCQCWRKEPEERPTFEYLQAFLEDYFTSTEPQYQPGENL
row,pIC50,SMILES
1,9.10 and 9.05,"COc1cc(Nc2c(C#N)cnc3cc(-c4coc(CN5CCCC5)c4)c(OC)cc23)c(Cl)cc1Cl [Example 6, 4-[(2,4-dichloro-5-methoxyphenyl)amino]-6-methoxy-7-[5-(pyrrolidin-1-ylmethyl)-3-furyl]quinoline-3-carbonitrile]"
2,9.05 and 9.10,"CCN(CC)Cc1cc(-c2cc3ncc(C#N)c(Nc4cc(OC)c(Cl)cc4Cl)c3cc2OC)co1 [Example 8, 4-[(2,4-dichloro-5-methoxyphenyl)amino]-7-{5-[(diethylamino)methyl]-3-furyl}-6-methoxyquinoline-3-carbonitrile]"
3,9.22 and 9.15,"CCN1CCN(Cc2cc(-c3cc4ncc(C#N)c(Nc5cc(OC)c(Cl)cc5Cl)c4cc3OC)co2)CC1 [Example 9, 4-[(2,4-dichloro-5-methoxyphenyl)amino]-7-{5-[(4-ethylpiperazin-1-yl)methyl]-3-furyl}-6-methoxyquinoline-3-carbonitrile]"
4,9.30,"COc1cc(Nc2c(C#N)cnc3cc(-c4coc(CN5CCN(C6CCN(C)CC6)CC5)c4)c(OC)cc23)c(Cl)cc1Cl [Example 10, 4-[(2,4-dichloro-5-methoxyphenyl)amino]-6-methoxy-7-(5-{[4-(1-methylpiperidin-4-yl)piperazin-1-yl]methyl}-3-furyl)quinoline-3-carbonitrile]"
5,8.96 and 9.00,"COc1cc(Nc2c(C#N)cnc3cc(-c4coc(CN5CCC(N6CCCC6)CC5)c4)c(OC)cc23)c(Cl)cc1Cl [Example 11, 4-[(2,4-dichloro-5-methoxyphenyl)amino]-6-methoxy-7-{5-[(4-pyrrolidin-1-ylpiperidin-1-yl)methyl]-3-furyl}quinoline-3-carbonitrile]"
6,8.60 and 8.68,"CCCCN1CCN(Cc2cc(-c3cc4ncc(C#N)c(Nc5cc(OC)c(Cl)cc5Cl)c4cc3OC)co2)CC1 [Example 12, 7-{5-[(4-butylpiperazin-1-yl)methyl]-3-furyl}-4-[(2,4-dichloro-5-methoxyphenyl)amino]-6-methoxyquinoline-3-carbonitrile]"
7,9.00,"COc1cc(Nc2c(C#N)cnc3cc(-c4coc(CN5CCN(CCN6CCOCC6)CC5)c4)c(OC)cc23)c(Cl)cc1Cl [Example 13, 4-[(2,4-dichloro-5-methoxyphenyl)amino]-6-methoxy-7-(5-{[4-(2-morpholin-4-ylethyl)piperazin-1-yl]methyl}-3-furyl)quinoline-3-carbonitrile]"
8,7.47 and 7.25,"COc1cc(Nc2c(C#N)cnc3cc(-c4coc(CN5CCN(Cc6ccccc6)CC5)c4)c(OC)cc23)c(Cl)cc1Cl [Example 14, 7-{5-[(4-benzylpiperazin-1-yl)methyl]-3-furyl}-4-[(2,4-dichloro-5-methoxyphenyl)amino]-6-methoxyquinoline-3-carbonitrile]"
9,7.74 and 7.88,"COc1cc(Nc2c(C#N)cnc3cc(-c4coc(CN5CCN(CCc6ccccc6)CC5)c4)c(OC)cc23)c(Cl)cc1Cl [Example 15, 4-[(2,4-dichloro-5-methoxyphenyl)amino]-6-methoxy-7-(5-{[4-(2-phenylethyl)piperazin-1-yl]methyl}-3-furyl)quinoline-3-carbonitrile]"
10,7.99 and 8.19,"CCCN(CCC)Cc1cc(-c2cc3ncc(C#N)c(Nc4cc(OC)c(Cl)cc4Cl)c3cc2OC)co1 [Example 16, 4-[(2,4-dichloro-5-methoxyphenyl)amino]-7-{5-[(dipropylamino)methyl]-3-furyl]-6-methoxyquinoline-3-carbonitrile]"
11,8.62 and 8.68,"COc1cc(Nc2c(C#N)cnc3cc(-c4coc(CN5CCS(=O)(=O)CC5)c4)c(OC)cc23)c(Cl)cc1Cl [Example 17, 4-[(2,4-dichloro-5-methoxyphenyl)amino]-7-{5-[(1,1-dioxidothiomorpholin-4-yl)methyl]-3-furyl}-6-methoxyquinoline-3-carbonitrile]"
12,8.82 and 8.62,"COc1cc(Nc2c(C#N)cnc3cc(-c4coc(CN5CC[S+]([O-])CC5)c4)c(OC)cc23)c(Cl)cc1Cl [Example 18, 4-[(2,4-dichloro-5-methoxyphenyl)amino]-6-methoxy-7-{5-[(1-oxidothiomorpholin-4-yl)methyl]-3-furyl}quinoline-3-carbonitrile]"
13,8.44 and 8.55,"COc1cc(Nc2c(C#N)cnc3cc(-c4coc(CN5CCN(C6CCCCC6)CC5)c4)c(OC)cc23)c(Cl)cc1Cl [Example 19, 7-{5-[(4-cyclohexylpiperazin-1-yl)methyl]-3-furyl}-4-[(2,4-dichloro-5-methoxyphenyl)amino]-6-methoxyquinoline-3-carbonitrile]"
14,8.00 and 7.93,"COc1ccc(N2CCN(Cc3cc(-c4cc5ncc(C#N)c(Nc6cc(OC)c(Cl)cc6Cl)c5cc4OC)co3)CC2)cc1 [Example 20, 4-[(2,4-dichloro-5-methoxyphenyl)amino]-6-methoxy-7-(5-{[4-(4-methoxyphenyl)piperazin-1-yl]methyl}-3-furyl)quinoline-3-carbonitrile]"
15,8.66 and 8.72,"COc1cc(Nc2c(C#N)cnc3cc(-c4coc(CN5CCN(c6ccncc6)CC5)c4)c(OC)cc23)c(Cl)cc1Cl [Example 21, 4-[(2,4-dichloro-5-methoxyphenyl)amino]-6-methoxy-7-[5-[(4-pyridin-4-ylpiperazin-1-yl)methyl]-3-furyl}quinoline-3-carbonitrile]"
16,7.89 and 7.84,"COc1cc(Nc2c(C#N)cnc3cc(-c4coc(CN5CCN(c6ccc(C)cc6)CC5)c4)c(OC)cc23)c(Cl)cc1Cl [Example 22, 4-[(2,4-dichloro-5-methoxyphenyl)amino]-6-methoxy-7-(5-{[4-(4-methylphenyl)piperazin-1-yl]methyl}-3-furyl)quinoline-3-carbonitrile]"
17,7.72 and 7.77,"COc1cc(Nc2c(C#N)cnc3cc(-c4coc(CN5CCN(c6ccc(Cl)cc6)CC5)c4)c(OC)cc23)c(Cl)cc1Cl [Example 23, 7-(5-{[4-(4-chlorophenyl)piperazin-1-yl]methyl}-3-furyl)-4-[(2,4-dichloro-5-methoxyphenyl)amino]-6-methoxyquinoline-3-carbonitrile]"
18,8.22 and 8.25,"COc1cc(Nc2c(C#N)cnc3cc(-c4coc(CN5CCN(c6ccc(O)cc6)CC5)c4)c(OC)cc23)c(Cl)cc1Cl [Example 24, 4-[(2,4-dichloro-5-methoxyphenyl)amino]-7-(5-{[4-(4-hydroxyphenyl)piperazin-1-yl]methyl}-3-furyl)-6-methoxyquinoline-3-carbonitrile]"
19,7.85 and 7.84,"COc1cc(Nc2c(C#N)cnc3cc(-c4coc(CN5CCN(c6ccc(C(F)(F)F)cc6)CC5)c4)c(OC)cc23)c(Cl)cc1Cl [Example 25, 4-[(2,4-dichloro-5-methoxyphenyl)amino]-6-methoxy-7-[5-({4-[4-(trifluoromethyl)phenyl]piperazin-1-yl}methyl)-3-furyl]quinoline-3-carbonitrile]"
20,8.04 and 8.11,"COc1cc(Nc2c(C#N)cnc3cc(-c4coc(CN5CCSCC5)c4)c(OC)cc23)c(Cl)cc1Cl [Example 26, 4-[(2,4-dichloro-5-methoxyphenyl)amino]-6-methoxy-7-[5-(thiomorpholin-4-ylmethyl)-3-furyl]quinoline-3-carbonitrile]"
21,8.49 and 8.60,"COc1cc(Nc2c(C#N)cnc3cc(-c4coc(CN(C)CCN(C)C)c4)c(OC)cc23)c(Cl)cc1Cl [Example 27, 4-[(2,4-dichloro-5-methoxyphenyl)amino]-7-(5-{[[2-(dimethylamino)ethyl](methyl)amino]methyl}-3-furyl)-6-methoxyquinoline-3-carbonitrile]"
22,9.00 and 9.15,"COc1cc(Nc2c(C#N)cnc3cc(-c4coc(CN5CCN(C(C)C)CC5)c4)c(OC)cc23)c(Cl)cc1Cl [Example 28, 4-[(2,4-dichloro-5-methoxyphenyl)amino]-7-{5-[(4-isopropylpiperazin-1-yl)methyl]-3-furyl}-6-methoxyquinoline-3-carbonitrile]"
23,8.89 and 9.00,"COc1cc(Nc2c(C#N)cnc3cc(-c4coc(CN5CCCN(C)CC5)c4)c(OC)cc23)c(Cl)cc1Cl [Example 29, 4-[(2,4-dichloro-5-methoxyphenyl)amino]-6-methoxy-7-{5-[(4-methyl-1,4-diazepan-1-yl)methyl]-3-furyl}quinoline-3-carbonitrile]"
24,8.72 and 8.77,"COCCN1CCN(Cc2cc(-c3cc4ncc(C#N)c(Nc5cc(OC)c(Cl)cc5Cl)c4cc3OC)co2)CC1 [Example 30, 4-[(2,4-dichloro-5-methoxyphenyl)amino]-6-methoxy-7-(5-{[4-(2-methoxyethyl)piperazin-1-yl]methyl}-3-furyl)quinoline-3-carbonitrile]"
25,8.72 and 8.74,"COc1cc(Nc2c(C#N)cnc3cc(-c4coc(CN5CCN(CCO)CC5)c4)c(OC)cc23)c(Cl)cc1Cl [Example 31, 4-[(2,4-dichloro-5-methoxyphenyl)amino]-7-(5-{[4-(2-hydroxyethyl)piperazin-1-yl]methyl}-3-furyl)-6-methoxyquinoline-3-carbonitrile]"
26,8.54 and 8.59,"COCCN(C)Cc1cc(-c2cc3ncc(C#N)c(Nc4cc(OC)c(Cl)cc4Cl)c3cc2OC)co1 [Example 32, 4-[(2,4-dichloro-5-methoxyphenyl)amino]-6-methoxy-7-(5-{[(2-methoxyethyl)(methyl)amino]methyl}-3-furyl)quinoline-3-carbonitrile]"

# Same assay, conditions: Src enzyme IC50, 100 μM ATP; multiple entries = tested multiple times
row,SMILES,pIC50
1,"COc1cc(Nc2c(C#N)cnc3cc(-c4coc(CN5CCCCC5)c4)c(OC)cc23)c(Cl)cc1Cl [Example 7, 4-[(2,4-dichloro-5-methoxyphenyl)amino]-6-methoxy-7-[5-(piperidin-1-ylmethyl)-3-furyl]quinoline-3-carbonitrile]",9.15
